Like-named read-outs stand apart in the source and are kept apart here.
Columns and labels:
[1] = test system: urethane anaesthetized rats; assay: Cardiovascular response (MAP, PP, HR) of drugs in urethane anaesthetized rats; assay type: in vivo, rat; conditions: for decrease in MAP / reduction in HR: compared to baseline; for dose-response effect on MAP, PP and HR: clonidine 10, 30, 90 μg/kg i.v., centhaquin 0.05, 0.15, 0.45 mg/kg i.v.
Excerpt: Rats were anaesthetized with urethane (1.5 g/kg i.p.) and prepared for the determination of hemodynamic parameters (Gulati and Srimal, 1993; Gulati et al., 1997b). The anesthetized rats were shaved and immobilized to prepare for cannulation. A 2-3 cm incision was made above the femoral vein and artery, and the vessels were dissected and cleaned. The left femoral vein was cannulated (PE-50 tubing, Clay Adams, Parsipanny, N.J.) and secured for drug administration. An ultra-miniature Pressure transducer SPR-320 (2F Polyurethane), with a single pressure sensor side mounted at the tip (Millar Instruments, Houston, Tex.), was inserted in the left femoral artery to acquire the hemodynamic signals. Pressure transducer was connected to bridge amplifier (ML221 Bridge Amp; AD Instruments, Mountain View, Calif., USA) with Viking connector (AEC-10C) and the signals were continuously acquired at a sampling rate of 1000 S^−1 using Millar PowerLab 16/30 data acquisition system (AD Instruments, Mountain View, Calif., USA). MAP, HR, and PP were determined and analyzed with LabChart-5.00 software program (Millar Instruments). After the experiment was completed, the animals were euthanized with higher dose of urethane (3 gm/kg).
The animals were allowed to stabilize for at least 20 min following surgical procedures.
In the above studies, all drugs were injected through the left femoral vein and changes in MAP, HR, and PP after clonidine and centhaquin injection were recorded for 1 hour using Millar PowerLab 16/30 data acquisition system.

[2] = Arterial blood gas analysis before and one hour after drug; assay type: in vivo, rat; conditions: for changes in arterial blood pH, pO2, pCO2, Na^+, K^+, lactate and hematocrit: before versus one hour after clonidine 90 μg/kg or centhaquin 0.45 mg/kg
Excerpt: Arterial blood pH, pO2, pCO2, Na^+, K^+, and lactate were monitored prior to and after drug administration. Blood samples were drawn from the arterial cannula using blood gas sampling syringes (Innovative Medical Technologies, Inc. Leawood, Kans.) and analyzed using a GEM Premier 3000 unit (Instrument Laboratory, Lexington, Mass.).
Blood samples were drawn from the arterial cannula using blood gas sampling syringes (Innovative Medical Technologies, Inc. Leawood, Kans.) and analyzed using a GEM Premier 3000 unit (Instrument Laboratory, Lexington, Mass.).

rats [3] = assay: Tail-flick latency analgesia (FIGS. 9-13); assay type: in vivo, rat; conditions: iv
[4] = test system: rats in the hemorrhagic shock model; assay: Hemorrhagic shock model, resuscitation with Ringer's lactate and centhaquin; assay type: in vivo, rat
mice = conditions: intraperitoneal; cited from earlier work
rats [5] = conditions: cited from earlier work
[6] = once a day for 15 days; cited from earlier work
norepinephrine release = conditions: centhaquin 0.1, 1.0 and 10.0 μg/ml; cited from earlier work
[7] = test system: α-adrenergic receptors in the hypothalamus and medulla; conditions: chronic administration in rats; with hypotension and bradycardia; cited from earlier work
[8] = test system: 5-HT1 receptors in the medulla; conditions: cited from earlier work
[9] = one hour after clonidine 90 μg/kg or centhaquin 0.45 mg/kg

Cc1cccc(N2CCN(CCc3ccc4ccccc4n3)CC2)c1 [Centhaquin]
decrease in MAP ([1]; centhaquin 0.05 mg/kg i.v.): 15.64%
reduction in HR ([1]; centhaquin 0.05 mg/kg i.v.): 10.49%
decrease in MAP ([1]; centhaquin 0.15 mg/kg i.v.): 25.15%
reduction in HR ([1]; centhaquin 0.15 mg/kg i.v.): 12.57%
decrease in MAP ([1]; centhaquin 0.45 mg/kg i.v.): 28.08%
reduction in HR ([1]; centhaquin 0.45 mg/kg i.v.): 13.34%
dose-response effect on MAP, PP and HR [1]: dose-dependent fall in MAP, and a decrease in HR
dose-response effect on MAP, PP and HR ([1]; listed as centhaquin): dose-dependent hypotension and bradycardia
changes in arterial blood pH, pO2, pCO2, Na^+, K^+, lactate and hematocrit [2]: did not affect arterial blood pH, pO2, and pCO2
changes in arterial blood pH, pO2, pCO2, Na^+, K^+, lactate and hematocrit ([2]; listed as centhaquin): no significant changes
Hct [2, 9]: 52 ± 1%
K^+ [2, 9]: 4.0 ± 0.2 mmol/L
Na^+ [2, 9]: 140 ± 1 mmol/L
arterial blood pH [2, 9]: 7.27 ± 0.02
pCO2 [2, 9]: 53 ± 2 mmHg
pO2 [2, 9]: 96 ± 9 mmHg
analgesic effect relative to 4 mg/kg dose of morphine (rats [3]; centhaquin 0.3 mg/kg): comparable
analgesic effect relative to 4 mg/kg dose of morphine (rats [3]; centhaquin 0.9 mg/kg): significantly greater
analgesia (tail-flick latency) (rats [3]; centhaquin 0.1, 0.3 and 0.9 mg/kg): dose-dependent analgesia
effect on morphine analgesia (rats [3]; centhaquin 0.3 and 0.9 mg/kg): potentiated
pressure-volume loops ([4]; LR-100 and centhaquin 0.05 mg/kg compared with LR-100): improvement
blood lactate, comparison of centhaquin doses ([4]; centhaquin 0.05-0.45 mg/kg): lower doses of centhaquin were more effective than the higher doses
blood lactate ([4]; centhaquin 0.05-0.45 mg/kg with Ringer's lactate): drop in lactate
survival time ([4]; centhaquin administered with LR-100): increase in survival time
LD50 (mice): 600 mg/kg
effect on MAP and HR (rats [5]; centhaquin 0.05 to 0.2 mg/kg, iv, urethane anesthetized rats): dose-dependent decrease
effect on MAP or HR (rats [5]; cervical sectioned rats, intravenously administered): did not produce any effect
effect on MAP or HR (rats [5]; intrathecal administration): did not produce any effect
potentiation or tolerance on repeated administration [6]: did not produce any potentiation or tolerance
norepinephrine release evoked by potassium chloride and dimethyl phenyl piperazinium chloride (norepinephrine release): inhibited
spontaneous release of norepinephrine (norepinephrine release): initial increase followed by decrease
effect of chronic administration on α-adrenergic receptors in the hypothalamus and medulla [7]: up-regulation
effect of repeated administration on 5-HT1 receptors in the medulla [8]: up-regulation

Source: patent US10828368B2, “Therapeutic treatments using centhaquin” (MIDWESTERN UNIVERSITY, priority 2009, dated 2020)
